Reference: patent US9981037B2, “Combination therapy of beta-glycolipids and antibodies for the treatment of immune-related disorders” (HADASIT MEDICAL RESEARCH SERVICES AND DEVELOPMENT LTD., priority 2008, dated 2018)

Legend:
dendritic cells = test: Expression of IL-23, IL-10 and TGF-β in dendritic cells by rtPCR; assay type: in vivo, human
Protocol: Nine subjects (3/group) were orally administered 0.2 mg, 1.0 mg or 5.0 mg of OKT3 daily for 5 days and immune parameters measured on days 5, 10 and 30 days (FIG. 12). Six subjects (3/group) received 7.5 mg of beta glucosylceramide in combination with 0.2 mg or 1.0 mg of OKT3 and 3 subjects received GC alone. All subjects were treated with 20 mg of Omeprazole (a proton pump inhibitor) during the 5 days of dosing. Dosing occurred in the morning before breakfast at the study site following a 8 hours fast.
(§1) Frozen PBMCs were used for sorting different cell populations, surface staining, and proliferation assays, and cytokine measurements. Cell sorting was performed by thawing […] PBMCs at room temperature (RT) and washing themed twice in medium at RT in 50-ml tubes in a 10-ml volume at 1,400 rpm. Cells were suspended to 20×10^6/ml and stained with seven colors staining of cells using Fc block, Lin-FITC, CD11c-APC, CD123-PE, CD3-Amcyan, CD4-Alexa700, CD25-PB, and 7-AAD was performed. Compensation controls, including an unstained control, were prepared. All samples were washed with medium and filtered into 15-ml tubes with 2 ml volume each to a total volume of 2 ml. CD4+ effector T cells, CD4+ regulatory T cells, myeloid DCs, and plasmacytoid DCs were sorted. Tubes were washed to get retrieve all sticky cells and spin them at 1,400 rpm. All cell populations were put in 350 μl of RLT 350 ul (lysis buffer), and transferred to eppendorff microtubes, and froze at −70° C. RNA was prepared using Qiagen micro kits (Valencia, Calif., USA) and cDNA was prepared using Applied Biosystems kits (Foster City, Calif., USA). We performed real-time PCR (RT-PCR) for different genes on in regulatory T cells, effector T cells, and DCs was performed.
RT RT-PCR was performed on DC from all patients in all groups. Sorting of DC was performed as described above. Total RNA was isolated from cell pellets using the RNA easy Mini Kit (QIAGENQiagen). RNA was stored at −80° C. First, strand cDNA synthesis was performed for each RNA sample from 0.5-1 μgm of total RNA using Taqman reverse transcription reagents (Applied Biosystems). cDNA was amplified using sequence-specific primers (for IL-23, IL-10, IL-1, IL-6, and TGF-β) and real-time PCR mix (Applied Biosystems) on an ABI7500 cycler. The GAPDH gene was used as an endogenous control to normalize for differences in the amount of total. RNA in each sample. All values were expressed as fold fold-increase or -decrease relative to the expression of GAPDH.
To further investigate the effect of oral OKT3 on the innate immune system, the expression of IL-23, IL-10 and TGF-β in dendritic cells was next measured by rtPCR.

T cells = test: FACS of activation and regulatory markers on T cells; assay type: in vivo, human
Protocol: as §1
For surface staining, one tube of frozen PBMCs was thawed at room temperature (RT) and washed twice in medium at RT in 50-ml tubes (10-ml volume) at 1,400 rpm. Cells were re-suspended cells at 8-10×10^6 cells/ml and 100 μl was aliquoted into each of 100 ul in 11 wells. For LAP+ cells (two wells), controls wells were preincubated with rLAP for 20 mins, and seven-colors staining of cells using CD3-Amcyan, CD4-Alexa700, CD8-APC, CD25-PB, and LAP-PE for 40 mins was preformed for 40 minutes. Cells were washed and stained with Annexin FITC and 7-AAD in Annexing binding buffer for 15 minutes. Cells were washed and analyzed immediately in Annexin Binding Buffer.
For Foxp3 surface staining (two wells), surface six-colors staining of cells using CD3-Amcyan, CD4-Alexa700, CD8-APC, and CD25-PB were performed for 30 minutes. Intracellular staining for IC/Foxp3-PE from eBiosciences was followed. For all other surface markers (7wellsseven wells), seven—color staining of cells was performed, using CD3-Amcyan, CD4-Alexa700, CD8-APC, CD25-PB, and Annexin FITC, 7-AAD, and IC/CD62L/CD69/CD45RO/CD127/CD28/HLA-DR-PE was performed. Cells were then washed Wash twice and Fix fixed the cells with 0.1% paraformaldehyde. Compensation controls, including an unstained control, were prepared. (Lin-FITC, CD11c-APC, CD123-PE, and CD3-Amcyan were tested in 1 μl/100 μl; CD4-Alexa700, CD25-PB, and 7-AAD were tested in 0.5 ul/100 μl; and LAP-PE, and Annexin-FITC were tested in 3 ul/100 μl).
For surface staining, freshly isolated PBMCs were suspended at 8-10×10^6 cells/ml. Surface two to three colors staining of cells were done with the following surface antibodies: CD4-FITC/CD25-PE, CD8− FITC/CD25-PE, CD3-APC/CD69-PE, CD11c-APC/Lin-FITC/CD86-PE, CD11c-APC/Lin-FITC/CD83-PE, CD11c-APC/Lin-FITC/HLAdr-PE. For LAP staining cells were preincubated with rLAP/control antibody for 20 mins, and stained with CD4-FITC and CD25-PE or CD8-FITC. […]
The inventors next investigated activation of markers and markers associated with regulation on T cells following oral OKT3 treatment. Regulatory T cells were measured by CD25hi, and effector cells were measured by CD25int/lo markers. […]

Question: For “OKT3: murine monoclonal anti-CD3 antibody (Orthoclone OKT-3, Ortho Biotech)”, which “subjects with similar findings (IL-10, TGF-β) in dendritic cells” value (dendritic cells; 0.2 mg oral, not shown) is on record?
Answer: Its value is “two out of three subjects”.

Question: And the “subjects with decrease in IL-23 in dendritic cells” value (dendritic cells; 1.0 mg oral)?
Answer: Its value is “all three subjects”.

Question: What about the “subjects with increase in IL-10 in dendritic cells” value (dendritic cells; 1.0 mg oral) of the same substance?
Answer: The value was “two out of three subjects”.

Question: What about the “subjects with increase in TGF-β in dendritic cells” value (dendritic cells; 1.0 mg oral) of the same substance?
Answer: Its value is “one out of three subjects”.

Question: What about the “effect on dendritic cells” value (dendritic cells; 5.0 mg oral, not shown) of the same substance?
Answer: Its value is “no effect”.

Question: What about the “subjects with similar pattern (increase) for CD8+CD25+ T cells” value (T cells; 0.2 mg oral, not shown) of the same substance?
Answer: The value was “two subjects”.

Question: What about the “CD4+CD25+ and CD8+CD25+ T cells” value (T cells; 1.0 mg fed group) of the same substance?
Answer: The value was “increase”.

Question: What about the “CD25hi Foxp3+ cells and CD25hi CTLA4 cells” value (T cells; 1.0 mg oral) of the same substance?
Answer: Its value is “increase”.

Question: And the “expression of TGF-β on CD25int/lo T cells” value (T cells; 1.0 mg oral)?
Answer: Its value is “increase”.

Question: What about the “subjects with similar pattern (increase) for CD8+CD25+ T cells” value (T cells; 1.0 or 5.0 mg oral) of the same substance?
Answer: The value was “all six subjects”.
